# Measured values as given in patent publication US20230074545A1, “TREATMENT OF CANCER WITH CDK12/13 INHIBITORS” (Kinnate Biopharma Inc., priority 2019, published 2023).
# Key:
# Assay in all cases: Radiometric kinase panel
# Assay type in all cases: biochemical
# [1] = target: T1, VEGFR2 (Homo sapiens, UniProt P35968)
# T1 construct: either as full-length or enzymatically active fragments; purchased ProQinase GmbH (Reaction Biology); host or cells: Sf9 insect cells or E. coli
# In short: (§1)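 Activity was measured radiometrically from [gamma-33P]-ATP incorporation into substrate. The kinases were recombinant human GST- or His-tagged proteins, full-length or active fragments, expressed in Sf9 or E. coli. Compound in 10% DMSO was added before the enzyme/substrate mix, which started the reaction.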
# [2] = target: T2, HIPK1 (Homo sapiens, UniProt Q86Z02)
# T2 construct: either as full-length or enzymatically active fragments; purchased ProQinase GmbH (Reaction Biology); host or cells: Sf9 insect cells or E. coli (not specified per kinase)
# In short: as §1
# [3] = target: T3, SRPK1 (Homo sapiens, UniProt Q96SB4)
# T3 construct: either as full-length or enzymatically active fragments; purchased ProQinase GmbH (Reaction Biology)
# In short: as §1
# [4] = target: T4, DYRK3 (Homo sapiens, UniProt O43781)
# T4 construct: either as full-length or enzymatically active fragments; purchased ProQinase GmbH (Reaction Biology)
# In short: as §1
# [5] = target: T5, CDK18/CycY (Homo sapiens, UniProt Q07002)
# T5 construct: either as full-length or enzymatically active fragments; purchased ProQinase GmbH (Reaction Biology)
# In short: as §1
# [6] = target: T6, MYLK2 (Homo sapiens, UniProt Q9H1R3)
# T6 construct: either as full-length or enzymatically active fragments; purchased ProQinase GmbH (Reaction Biology); host or cells: Sf9 insect cells or E. coli
# In short: as §1
# [7] = target: T7, BRK (Homo sapiens, UniProt Q13882)
# T7 construct: purchased ProQinase GmbH (Reaction Biology); host or cells: Sf9 insect cells or E. coli (not specified per kinase)
# In short: as §1
# [8] = target: T8, CDK9/CycK (Homo sapiens, UniProt P50750)
# T8 construct: either as full-length or enzymatically active fragments; purchased ProQinase GmbH (Reaction Biology)
# In short: as §1
# [9] = target: T9, CDK3/CycE1 (Homo sapiens, UniProt Q00526)
# T9 construct: either as full-length or enzymatically active fragments; purchased ProQinase GmbH (Reaction Biology)
# In short: as §1
# [10] = target: T10, ZAP70 (Homo sapiens, UniProt P43403)
# T10 construct: either as full-length or enzymatically active fragments; purchased ProQinase GmbH (Reaction Biology)
# In short: as §1
# [11] = target: T11, GRK5 (Homo sapiens, UniProt P34947)
# T11 construct: either as full-length or enzymatically active fragments; purchased ProQinase GmbH (Reaction Biology)
# In short: as §1
# [12] = target: T12, PAK6 (Homo sapiens, UniProt Q9NQU5)
# T12 construct: either as full-length or enzymatically active fragments; purchased ProQinase GmbH (Reaction Biology)
# In short: as §1
# [13] = target: T13, CK1delta (Homo sapiens, UniProt P48730)
# T13 construct: either as full-length or enzymatically active fragments; purchased ProQinase GmbH (Reaction Biology)
# In short: as §1
# [14] = target: T14, CDK5/p25NCK (Homo sapiens, UniProt Q00535)
# T14 construct: either as full-length or enzymatically active fragments; purchased ProQinase GmbH (Reaction Biology)
# In short: as §1
# [15] = target: T15, RIPK5 (Homo sapiens, UniProt Q6XUX3)
# T15 construct: purchased ProQinase GmbH (Reaction Biology)
# In short: as §1
# [16] = target: T16, EIF2AK2 (Homo sapiens, UniProt P19525)
# T16 construct: either as full-length or enzymatically active fragments; purchased ProQinase GmbH (Reaction Biology); host or cells: Sf9 insect cells or E. coli
# In short: as §1
# [17] = target: T17, EPHB4 (Homo sapiens, UniProt P54760)
# T17 construct: either as full-length or enzymatically active fragments; purchased ProQinase GmbH (Reaction Biology)
# In short: as §1
# [18] = target: T18, RON (Homo sapiens, UniProt Q04912)
# T18 construct: purchased ProQinase GmbH (Reaction Biology)
# In short: as §1
# [19] = target: T19, MAP3K1 (Homo sapiens, UniProt Q13233)
# T19 construct: either as full-length or enzymatically active fragments; purchased ProQinase GmbH (Reaction Biology); host or cells: Sf9 insect cells or E. coli (not specified per kinase)
# In short: as §1
# [20] = target: T20, SNK (Homo sapiens, UniProt Q9NYY3)
# T20 construct: either as full-length or enzymatically active fragments; purchased ProQinase GmbH (Reaction Biology); host or cells: Sf9 insect cells or E. coli (not specified per kinase)
# In short: as §1
# [21] = target: T21, CDK1/CycA2 (Homo sapiens, UniProt P06493)
# T21 construct: either as full-length or enzymatically active fragments; purchased ProQinase GmbH (Reaction Biology)
# In short: as §1
# [22] = target: T22, EPHB2 (Homo sapiens, UniProt P29323)
# T22 construct: purchased ProQinase GmbH (Reaction Biology); host or cells: Sf9 insect cells or E. coli (not specified per kinase)
# In short: as §1
# [23] = target: T23, PAK7 (Homo sapiens, UniProt Q9P286)
# T23 construct: either as full-length or enzymatically active fragments; purchased ProQinase GmbH (Reaction Biology); host or cells: Sf9 insect cells or E. coli
# In short: as §1
# [24] = target: T24, TGFBR2 (Homo sapiens, UniProt P37173)
# T24 construct: either as full-length or enzymatically active fragments; purchased ProQinase GmbH (Reaction Biology)
# In short: as §1
# [25] = target: T25, SGK2 (Homo sapiens, UniProt Q9HBY8)
# T25 construct: purchased ProQinase GmbH (Reaction Biology); host or cells: Sf9 insect cells or E. coli (not specified per kinase)
# In short: as §1
# [26] = target: T26, TRKA (Homo sapiens, UniProt P04629)
# T26 construct: either as full-length or enzymatically active fragments; purchased ProQinase GmbH (Reaction Biology)
# In short: as §1
# [27] = target: T27, MAPKAPK5 (Homo sapiens, UniProt Q8IW41)
# T27 construct: purchased ProQinase GmbH (Reaction Biology)
# In short: as §1
# [28] = target: T28, LIMK1 (Homo sapiens, UniProt P53667)
# T28 construct: either as full-length or enzymatically active fragments; purchased ProQinase GmbH (Reaction Biology)
# In short: as §1
# [29] = target: T29, NLK (Homo sapiens, UniProt Q9UBE8)
# T29 construct: either as full-length or enzymatically active fragments; purchased ProQinase GmbH (Reaction Biology)
# In short: as §1
# [30] = target: T30, MKK7 (Homo sapiens, UniProt O14733)
# T30 construct: either as full-length or enzymatically active fragments; purchased ProQinase GmbH (Reaction Biology); host or cells: Sf9 insect cells or E. coli (not specified per kinase)
# In short: as §1
# T26 sequence (P04629 33-796): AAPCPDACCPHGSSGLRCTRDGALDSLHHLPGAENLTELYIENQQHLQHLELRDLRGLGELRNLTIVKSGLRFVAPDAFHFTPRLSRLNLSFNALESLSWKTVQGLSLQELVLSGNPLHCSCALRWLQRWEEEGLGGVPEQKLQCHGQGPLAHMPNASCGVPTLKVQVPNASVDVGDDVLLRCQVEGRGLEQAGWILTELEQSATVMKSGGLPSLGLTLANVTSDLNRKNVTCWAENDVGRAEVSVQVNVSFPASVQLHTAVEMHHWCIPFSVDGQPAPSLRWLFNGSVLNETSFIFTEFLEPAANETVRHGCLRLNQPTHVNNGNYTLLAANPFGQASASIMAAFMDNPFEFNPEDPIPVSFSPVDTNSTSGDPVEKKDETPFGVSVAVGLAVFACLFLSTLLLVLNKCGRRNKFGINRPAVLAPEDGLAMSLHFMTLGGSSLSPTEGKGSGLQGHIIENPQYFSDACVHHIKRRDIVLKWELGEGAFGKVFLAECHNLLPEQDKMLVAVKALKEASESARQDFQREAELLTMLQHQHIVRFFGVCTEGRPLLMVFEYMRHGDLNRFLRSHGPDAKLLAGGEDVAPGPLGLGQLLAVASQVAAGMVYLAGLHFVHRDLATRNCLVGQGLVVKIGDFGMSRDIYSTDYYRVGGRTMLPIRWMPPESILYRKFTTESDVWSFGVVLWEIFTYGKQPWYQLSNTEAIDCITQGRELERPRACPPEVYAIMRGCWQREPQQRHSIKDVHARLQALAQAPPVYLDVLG
# T6 sequence (Q9H1R3 whole entry, the tested form may be a part): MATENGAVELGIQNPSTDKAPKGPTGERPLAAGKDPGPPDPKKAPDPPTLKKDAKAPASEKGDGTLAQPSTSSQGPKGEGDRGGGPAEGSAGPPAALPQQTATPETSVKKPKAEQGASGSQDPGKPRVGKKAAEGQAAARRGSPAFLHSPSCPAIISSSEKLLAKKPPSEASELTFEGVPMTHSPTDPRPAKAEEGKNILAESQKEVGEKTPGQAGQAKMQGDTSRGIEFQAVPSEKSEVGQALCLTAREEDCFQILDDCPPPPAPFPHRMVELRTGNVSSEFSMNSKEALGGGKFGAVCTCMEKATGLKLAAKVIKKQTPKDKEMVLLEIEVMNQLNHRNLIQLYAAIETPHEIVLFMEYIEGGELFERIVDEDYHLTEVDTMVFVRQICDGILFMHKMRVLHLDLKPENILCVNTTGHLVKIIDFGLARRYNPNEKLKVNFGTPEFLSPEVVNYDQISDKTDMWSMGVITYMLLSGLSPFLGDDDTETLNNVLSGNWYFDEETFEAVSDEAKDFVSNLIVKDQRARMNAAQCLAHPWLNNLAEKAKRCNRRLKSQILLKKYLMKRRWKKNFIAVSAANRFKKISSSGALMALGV
# T17 sequence (P54760 16-987): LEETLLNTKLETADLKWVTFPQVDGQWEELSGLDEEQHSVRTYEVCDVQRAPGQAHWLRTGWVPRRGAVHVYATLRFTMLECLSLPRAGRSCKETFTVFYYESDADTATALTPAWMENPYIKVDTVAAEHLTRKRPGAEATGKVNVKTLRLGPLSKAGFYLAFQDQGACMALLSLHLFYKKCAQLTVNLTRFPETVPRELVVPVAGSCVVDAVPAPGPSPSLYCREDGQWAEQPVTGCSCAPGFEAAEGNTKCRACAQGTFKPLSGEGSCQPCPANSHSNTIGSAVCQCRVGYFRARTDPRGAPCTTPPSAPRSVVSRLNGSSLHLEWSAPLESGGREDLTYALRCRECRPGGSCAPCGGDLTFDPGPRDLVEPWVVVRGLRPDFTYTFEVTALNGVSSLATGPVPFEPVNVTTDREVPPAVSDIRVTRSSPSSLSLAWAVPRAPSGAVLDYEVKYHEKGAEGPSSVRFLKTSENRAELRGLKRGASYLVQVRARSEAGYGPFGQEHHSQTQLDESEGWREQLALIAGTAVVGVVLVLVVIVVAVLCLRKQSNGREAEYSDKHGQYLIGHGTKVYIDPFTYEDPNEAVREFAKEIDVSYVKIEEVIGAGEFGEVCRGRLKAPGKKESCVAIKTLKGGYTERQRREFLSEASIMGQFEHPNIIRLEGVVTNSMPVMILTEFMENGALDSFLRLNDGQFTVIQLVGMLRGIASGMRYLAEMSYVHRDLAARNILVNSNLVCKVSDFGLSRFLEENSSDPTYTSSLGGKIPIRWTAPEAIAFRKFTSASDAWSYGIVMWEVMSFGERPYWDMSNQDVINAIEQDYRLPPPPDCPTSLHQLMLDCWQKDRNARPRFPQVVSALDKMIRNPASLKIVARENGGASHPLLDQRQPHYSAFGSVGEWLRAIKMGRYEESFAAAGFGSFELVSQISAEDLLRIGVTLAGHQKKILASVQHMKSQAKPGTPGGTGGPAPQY
# T2 sequence (Q86Z02 whole entry, the tested form may be a part): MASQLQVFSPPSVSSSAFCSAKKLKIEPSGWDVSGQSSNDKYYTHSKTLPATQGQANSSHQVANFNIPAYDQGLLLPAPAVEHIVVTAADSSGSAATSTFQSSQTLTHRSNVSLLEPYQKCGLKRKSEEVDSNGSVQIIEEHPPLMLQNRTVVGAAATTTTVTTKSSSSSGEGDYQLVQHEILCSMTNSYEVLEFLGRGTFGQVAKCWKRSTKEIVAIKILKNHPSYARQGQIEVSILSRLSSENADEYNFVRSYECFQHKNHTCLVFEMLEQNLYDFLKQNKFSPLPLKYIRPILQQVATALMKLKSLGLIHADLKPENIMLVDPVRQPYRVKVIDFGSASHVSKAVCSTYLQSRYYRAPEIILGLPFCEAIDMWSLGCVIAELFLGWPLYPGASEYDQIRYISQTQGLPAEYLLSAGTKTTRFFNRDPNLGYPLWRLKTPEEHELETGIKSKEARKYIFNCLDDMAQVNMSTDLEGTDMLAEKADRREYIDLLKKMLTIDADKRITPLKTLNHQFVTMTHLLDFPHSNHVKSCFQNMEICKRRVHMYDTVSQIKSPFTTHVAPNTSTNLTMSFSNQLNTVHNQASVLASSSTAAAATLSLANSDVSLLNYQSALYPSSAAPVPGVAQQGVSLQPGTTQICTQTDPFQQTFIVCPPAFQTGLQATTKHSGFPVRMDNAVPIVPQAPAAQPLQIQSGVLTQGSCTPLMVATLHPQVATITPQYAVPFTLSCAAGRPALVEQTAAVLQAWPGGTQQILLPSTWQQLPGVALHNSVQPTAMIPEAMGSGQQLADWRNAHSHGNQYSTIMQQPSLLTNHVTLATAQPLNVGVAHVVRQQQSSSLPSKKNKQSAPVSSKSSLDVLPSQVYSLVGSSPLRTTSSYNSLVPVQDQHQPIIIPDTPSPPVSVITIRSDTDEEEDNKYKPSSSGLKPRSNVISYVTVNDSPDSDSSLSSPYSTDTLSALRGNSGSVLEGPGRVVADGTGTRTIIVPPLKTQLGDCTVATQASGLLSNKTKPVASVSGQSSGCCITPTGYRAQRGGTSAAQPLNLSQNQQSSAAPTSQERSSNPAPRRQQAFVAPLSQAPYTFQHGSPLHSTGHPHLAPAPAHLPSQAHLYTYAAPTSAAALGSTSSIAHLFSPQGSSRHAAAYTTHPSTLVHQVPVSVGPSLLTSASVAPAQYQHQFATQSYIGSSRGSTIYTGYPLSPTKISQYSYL
# T9 sequence (Q00526 whole entry, the tested form may be a part): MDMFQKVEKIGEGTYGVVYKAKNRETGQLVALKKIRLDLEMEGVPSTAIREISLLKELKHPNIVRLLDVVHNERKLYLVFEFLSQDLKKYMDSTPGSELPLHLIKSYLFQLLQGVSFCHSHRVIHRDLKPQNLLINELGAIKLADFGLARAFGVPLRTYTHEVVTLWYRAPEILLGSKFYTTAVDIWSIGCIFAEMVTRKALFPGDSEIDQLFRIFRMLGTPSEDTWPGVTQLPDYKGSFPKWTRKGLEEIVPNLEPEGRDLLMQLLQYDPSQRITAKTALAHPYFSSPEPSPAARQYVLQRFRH
# T9 sequence (P24864 whole entry partner, the tested form may be a part): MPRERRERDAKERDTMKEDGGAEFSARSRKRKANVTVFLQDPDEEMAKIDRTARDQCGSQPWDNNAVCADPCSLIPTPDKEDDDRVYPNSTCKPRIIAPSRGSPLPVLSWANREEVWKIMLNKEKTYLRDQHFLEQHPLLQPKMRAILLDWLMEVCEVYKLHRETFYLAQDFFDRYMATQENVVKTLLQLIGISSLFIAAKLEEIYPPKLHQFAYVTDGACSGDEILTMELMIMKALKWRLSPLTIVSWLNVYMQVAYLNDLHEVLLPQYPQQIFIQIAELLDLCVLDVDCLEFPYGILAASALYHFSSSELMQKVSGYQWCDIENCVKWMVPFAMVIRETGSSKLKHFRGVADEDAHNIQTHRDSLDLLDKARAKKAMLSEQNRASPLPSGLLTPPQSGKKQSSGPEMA
# T12 sequence (Q9NQU5 whole entry, the tested form may be a part): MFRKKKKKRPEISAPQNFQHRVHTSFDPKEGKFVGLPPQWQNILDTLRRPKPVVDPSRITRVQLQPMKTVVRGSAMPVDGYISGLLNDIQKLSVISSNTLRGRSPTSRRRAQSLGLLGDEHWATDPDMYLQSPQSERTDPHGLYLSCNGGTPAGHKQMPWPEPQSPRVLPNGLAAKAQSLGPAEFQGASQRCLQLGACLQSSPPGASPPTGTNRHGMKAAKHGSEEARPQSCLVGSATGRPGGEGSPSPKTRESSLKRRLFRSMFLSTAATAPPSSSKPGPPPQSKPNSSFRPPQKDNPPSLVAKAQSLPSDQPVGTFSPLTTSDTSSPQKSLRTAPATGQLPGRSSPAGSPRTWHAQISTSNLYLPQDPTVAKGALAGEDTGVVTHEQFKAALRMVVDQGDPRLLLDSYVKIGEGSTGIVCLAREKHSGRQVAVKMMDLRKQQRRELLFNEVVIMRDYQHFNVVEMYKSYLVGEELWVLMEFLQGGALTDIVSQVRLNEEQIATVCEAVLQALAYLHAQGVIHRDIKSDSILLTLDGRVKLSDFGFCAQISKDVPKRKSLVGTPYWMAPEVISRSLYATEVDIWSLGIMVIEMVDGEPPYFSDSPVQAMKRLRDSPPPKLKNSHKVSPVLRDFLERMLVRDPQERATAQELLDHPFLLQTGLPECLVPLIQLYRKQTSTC
structure (smiles),measurement,setting,value
"C=CC(=O)Nc1ccc(C(=O)N2CC[C@@H](Nc3ncc(C#N)cn3)C2)cc1 [Compound 4, (R)-N-(4-(3-((5-cyanopyrimidin-2-yl)amino)pyrrolidine-1-carbonyl)phenyl)acrylamide]",inhibition at 1 µM,[1],12%
same,inhibition at 1 µM,[2],8%
same,inhibition at 1 µM,[3],-8%
same,inhibition at 1 µM,[4],-3%
same,inhibition at 1 µM,[5],20%
same,inhibition at 1 µM,[6],12%
same,inhibition at 1 µM,[7],1%
same,inhibition at 1 µM,[8],21%
same,inhibition at 1 µM,[9],25%
same,inhibition at 1 µM,[10],-6%
same,inhibition at 1 µM,[11],-6%
same,inhibition at 1 µM,[12],4%
same,inhibition at 1 µM,[13],-7%
same,inhibition at 1 µM,[14],3%
same,inhibition at 1 µM,[15],0%
same,inhibition at 1 µM,[16],15%
same,inhibition at 1 µM,[17],-4%
same,inhibition at 1 µM,[18],-1%
same,inhibition at 1 µM,[19],9%
same,inhibition at 1 µM,[20],9%
same,inhibition at 1 µM,[21],17%
same,inhibition at 1 µM,[22],1%
same,inhibition at 1 µM,[23],12%
same,inhibition at 1 µM,[24],22%
same,inhibition at 1 µM,[25],1%
same,inhibition at 1 µM,[26],-7%
same,inhibition at 1 µM,[27],-1%
same,inhibition at 1 µM,[28],7%
same,inhibition at 1 µM,[29],4%
same,inhibition at 1 µM,[30],11%
